Measured values: ChEMBL document CHEMBL1141872 (Bioorg Med Chem Lett, 2005)

Tests used:
[1] = biological target: 3',5'-cyclic-AMP phosphodiesterase 4A (Homo sapiens, UniProt P27815); experiment: Inhibitory activity against PDE4A
[2] = biological target: 3',5'-cyclic-AMP phosphodiesterase 4B (Homo sapiens, UniProt Q07343); experiment: Inhibitory activity against PDE4B
[3] = biological target: 3',5'-cyclic-AMP phosphodiesterase 4C (Homo sapiens, UniProt Q08493); experiment: Inhibitory activity against PDE4C
Sequence of 3',5'-cyclic-AMP phosphodiesterase 4C (Q08493 whole entry): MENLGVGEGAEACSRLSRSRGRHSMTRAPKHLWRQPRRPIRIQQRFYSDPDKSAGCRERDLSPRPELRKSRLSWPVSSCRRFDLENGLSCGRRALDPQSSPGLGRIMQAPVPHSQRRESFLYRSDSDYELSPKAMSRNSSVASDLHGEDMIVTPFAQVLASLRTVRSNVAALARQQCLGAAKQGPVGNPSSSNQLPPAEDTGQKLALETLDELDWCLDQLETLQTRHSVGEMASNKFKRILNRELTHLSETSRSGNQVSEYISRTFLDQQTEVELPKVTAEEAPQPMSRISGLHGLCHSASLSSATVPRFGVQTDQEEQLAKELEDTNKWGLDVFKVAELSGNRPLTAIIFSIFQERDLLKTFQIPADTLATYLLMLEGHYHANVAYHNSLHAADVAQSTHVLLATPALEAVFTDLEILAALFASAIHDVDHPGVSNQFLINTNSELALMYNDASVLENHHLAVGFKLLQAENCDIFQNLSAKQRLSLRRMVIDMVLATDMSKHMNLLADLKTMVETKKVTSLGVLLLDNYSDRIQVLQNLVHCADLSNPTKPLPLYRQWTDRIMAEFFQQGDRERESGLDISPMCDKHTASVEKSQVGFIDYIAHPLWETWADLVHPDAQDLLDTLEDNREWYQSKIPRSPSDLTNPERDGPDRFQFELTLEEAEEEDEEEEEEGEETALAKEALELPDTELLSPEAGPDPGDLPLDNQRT

[4] = biological target: 3',5'-cyclic-AMP phosphodiesterase 4D (Homo sapiens, UniProt Q08499); experiment: Inhibitory activity against PDE4D
Sequence of 3',5'-cyclic-AMP phosphodiesterase 4D (Q08499 whole entry): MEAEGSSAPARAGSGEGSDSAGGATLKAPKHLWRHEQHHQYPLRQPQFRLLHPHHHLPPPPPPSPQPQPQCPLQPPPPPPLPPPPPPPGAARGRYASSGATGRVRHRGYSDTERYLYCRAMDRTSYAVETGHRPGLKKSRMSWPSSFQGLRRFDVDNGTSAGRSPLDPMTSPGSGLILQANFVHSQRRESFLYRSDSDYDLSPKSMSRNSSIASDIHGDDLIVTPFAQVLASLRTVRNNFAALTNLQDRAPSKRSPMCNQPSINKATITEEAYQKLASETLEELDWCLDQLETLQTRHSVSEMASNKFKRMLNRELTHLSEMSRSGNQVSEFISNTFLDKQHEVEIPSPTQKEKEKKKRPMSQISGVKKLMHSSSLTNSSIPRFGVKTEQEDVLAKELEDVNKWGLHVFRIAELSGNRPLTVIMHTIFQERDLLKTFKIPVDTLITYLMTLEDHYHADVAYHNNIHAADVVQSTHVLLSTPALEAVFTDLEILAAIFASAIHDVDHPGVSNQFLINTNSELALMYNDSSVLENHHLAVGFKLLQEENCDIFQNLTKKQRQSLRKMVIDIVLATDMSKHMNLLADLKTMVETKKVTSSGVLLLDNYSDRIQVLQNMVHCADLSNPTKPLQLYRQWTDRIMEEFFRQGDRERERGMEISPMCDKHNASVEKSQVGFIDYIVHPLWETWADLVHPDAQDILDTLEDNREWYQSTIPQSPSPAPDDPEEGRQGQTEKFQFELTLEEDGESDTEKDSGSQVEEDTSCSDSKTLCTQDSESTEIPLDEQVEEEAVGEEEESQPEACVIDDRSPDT

[5] = biological target: T1, Phosphodiesterase 4 (Homo sapiens, UniProt P27815+Q08499+Q07343+Q08493); experiment: Inhibition of LPS-induced TNFalpha production in human whole blood; type: functional, tissue-based
[6] = tested on: Cavia porcellus; experiment: Inhibition of ovalbumin-induced bronchoconstriction in guinea pig at 0.3 mg/kg, ip; type: functional; conditions: route intraperitoneal
[7] = Emetic threshold as plasma concentration in ferrets after 1.0 mg/kg oral dose; type: ADME, organism-based, Mustela putorius furo; parameters: dose 1 mg/kg, route oral; conditions: ferret, read-out: Emesis_Cmax
[8] = Emetic threshold as plasma concentration in squirrel monkeys after 3 mg/kg oral dose; type: ADME, organism-based; parameters: dose 3 mg/kg, route oral; conditions: saimiri, read-out: Emesis_Cmax
[9] = tested on: Cavia porcellus; experiment: Inhibition of ovalbumin-induced bronchoconstriction in guinea pig at 0.1 mg/kg, ip; type: functional; conditions: route intraperitoneal
[10] = tested on: Cavia porcellus; experiment: Inhibition of ovalbumin-induced bronchoconstriction in guinea pig at 1 mg/kg, ip; type: functional; conditions: route intraperitoneal
[11] = tested on: Mustela putorius furo; experiment: Emetic threshold as plasma concentration in ferrets after 10 mg/kg oral dose; type: ADME, organism-based; parameters: dose 10 mg/kg, route oral; conditions: ferret, in vivo
[12] = Emetic threshold as plasma concentration in squirrel monkeys after 10 mg/kg oral dose; type: ADME, organism-based; parameters: dose 10 mg/kg, route oral; conditions: saimiri, read-out: Emesis_Cmax
[13] = biological target: T1, Phosphodiesterase 4; experiment: Inhibition of LPS-induced TNFalpha production in squirrel monkey whole blood; type: functional, tissue-based, Saimiri sciureus; conditions: target entry is the homologue from another species
[14] = tested on: Cavia porcellus; experiment: Inhibition of ovalbumin-induced bronchoconstriction in guinea pig at 0.01 mg/kg, ip; type: functional; conditions: route intraperitoneal
[15] = tested on: Ovis aries; experiment: Inhibition of early-phase antigen induced bronchoconstriction in Ascaris sensitive sheep at 0.5 mg/kg/day, iv; type: functional
[16] = tested on: Ovis aries; experiment: Inhibition of late-phase antigen induced bronchoconstriction in Ascaris sensitive sheep at 0.5 mg/kg/day, iv; type: functional
[17] = Emetic threshold as plasma concentration in squirrel monkeys after 0.5 mg/kg oral dose; type: ADME, organism-based; parameters: dose 0.5 mg/kg, route oral; conditions: saimiri, read-out: Emesis_Cmax
[18] = Cmax in rat at 20 mg/kg, po; type: ADME, organism-based; parameters: dose 20 mg/kg, route oral; conditions: in vivo
[19] = Oral bioavailability in rat at 20 mg/kg, po; type: ADME, organism-based; conditions: in vivo
[20] = Tmax in rat at 20 mg/kg, po; type: ADME, organism-based; parameters: dose 20 mg/kg, route oral; conditions: in vivo
[21] = tested on: Cavia porcellus; experiment: Inhibition of ovalbumin-induced bronchoconstriction in guinea pig at 0.03 mg/kg, ip; type: functional; conditions: route intraperitoneal
[22] = Emetic threshold as plasma concentration in ferrets after 30 mg/kg oral dose; type: ADME, organism-based, Mustela putorius furo; parameters: dose 30 mg/kg, route oral; conditions: ferret, read-out: Emesis_Cmax

Sequence of 3',5'-cyclic-AMP phosphodiesterase 4B (Q07343 whole entry): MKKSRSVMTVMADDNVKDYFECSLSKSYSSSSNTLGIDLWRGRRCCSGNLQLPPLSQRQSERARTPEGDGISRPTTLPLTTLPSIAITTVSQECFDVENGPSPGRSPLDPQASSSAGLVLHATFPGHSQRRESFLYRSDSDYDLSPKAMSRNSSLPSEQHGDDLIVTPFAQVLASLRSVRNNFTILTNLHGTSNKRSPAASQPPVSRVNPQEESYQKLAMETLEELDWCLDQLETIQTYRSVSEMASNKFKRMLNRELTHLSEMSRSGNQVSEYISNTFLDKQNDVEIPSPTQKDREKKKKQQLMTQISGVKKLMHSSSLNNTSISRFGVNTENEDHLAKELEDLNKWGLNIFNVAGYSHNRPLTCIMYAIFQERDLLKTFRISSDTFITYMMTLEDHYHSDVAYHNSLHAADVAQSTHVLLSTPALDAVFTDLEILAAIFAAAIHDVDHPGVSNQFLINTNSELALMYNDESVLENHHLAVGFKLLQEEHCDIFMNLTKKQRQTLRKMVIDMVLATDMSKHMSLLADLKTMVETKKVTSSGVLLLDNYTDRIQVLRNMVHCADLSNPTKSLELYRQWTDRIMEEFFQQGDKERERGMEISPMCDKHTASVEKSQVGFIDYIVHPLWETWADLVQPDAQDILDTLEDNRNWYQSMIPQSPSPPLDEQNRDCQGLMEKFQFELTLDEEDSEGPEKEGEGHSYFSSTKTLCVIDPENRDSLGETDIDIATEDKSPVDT
Sequence of 3',5'-cyclic-AMP phosphodiesterase 4A (P27815 whole entry): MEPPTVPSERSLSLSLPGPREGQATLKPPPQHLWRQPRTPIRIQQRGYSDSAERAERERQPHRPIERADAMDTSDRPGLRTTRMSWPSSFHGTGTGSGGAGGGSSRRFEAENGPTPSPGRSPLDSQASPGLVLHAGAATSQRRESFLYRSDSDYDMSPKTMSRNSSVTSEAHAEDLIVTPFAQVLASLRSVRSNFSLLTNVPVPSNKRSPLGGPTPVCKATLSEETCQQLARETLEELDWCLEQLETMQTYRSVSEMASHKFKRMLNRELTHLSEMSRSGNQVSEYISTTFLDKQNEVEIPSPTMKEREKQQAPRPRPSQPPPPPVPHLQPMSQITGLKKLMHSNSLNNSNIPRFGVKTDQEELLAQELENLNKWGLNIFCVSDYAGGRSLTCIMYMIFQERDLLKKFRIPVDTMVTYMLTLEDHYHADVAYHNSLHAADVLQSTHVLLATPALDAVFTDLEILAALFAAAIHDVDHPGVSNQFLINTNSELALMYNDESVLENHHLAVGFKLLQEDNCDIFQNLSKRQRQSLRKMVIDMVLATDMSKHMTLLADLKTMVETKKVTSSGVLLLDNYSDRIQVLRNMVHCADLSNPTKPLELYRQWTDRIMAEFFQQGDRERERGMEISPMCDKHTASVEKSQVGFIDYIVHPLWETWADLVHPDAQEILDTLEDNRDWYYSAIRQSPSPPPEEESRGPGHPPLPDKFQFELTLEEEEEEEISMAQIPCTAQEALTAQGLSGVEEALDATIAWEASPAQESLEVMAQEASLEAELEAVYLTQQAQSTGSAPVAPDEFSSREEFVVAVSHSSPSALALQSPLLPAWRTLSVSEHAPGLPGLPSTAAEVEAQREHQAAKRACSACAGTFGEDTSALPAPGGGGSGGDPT

CC(C)c1cc(-c2cccc(/C=C(\c3ccc(S(C)(=O)=O)cc3)c3nccs3)c2)c2ncccc2c1
IC50 [1]: 0.47 nM
IC50 [2]: 0.3 nM
IC50 [3]: 0.7 nM
IC50 [4]: 0.19 nM
IC50 [5]: 120 nM

CC(C)c1cc(-c2cccc(/C=C(/C(=O)O)c3ccc(S(C)(=O)=O)cc3)c2)c2ncccc2c1
IC50 [1]: 0.3 nM
IC50 [2]: 0.3 nM
IC50 [3]: 3.8 nM
IC50 [4]: 0.5 nM
IC50 [5]: 1600 nM

Cc1ccc(/C(=C/c2cccc(-c3cc(C(C)C)cc4cccnc34)c2)c2ccc(S(C)(=O)=O)cc2)nc1
IC50 [1]: 0.2 nM
IC50 [2]: 0.2 nM
IC50 [3]: 0.4 nM
IC50 [4]: 0.2 nM
IC50 [5]: 120 nM

Cc1noc(/C(=C/c2cccc(-c3cc(C(C)C)cc4cccnc34)c2)c2ccccn2)n1
IC50 [1]: 0.5 nM
IC50 [2]: 0.3 nM
IC50 [3]: 5.7 nM
IC50 [4]: 0.6 nM
IC50 [5]: 1200 nM

COc1cccc(-c2cc(Cc3ccncc3)cc3cccnc23)c1
IC50 [1]: 1.5 nM
IC50 [2]: 2.3 nM
IC50 [3]: 3.3 nM
IC50 [4]: 2.5 nM
IC50 [5]: 8300 nM
inhibition in vivo at 0.3 mg/kg [6]: 70%
Cmax [7]: 200 nM

CC(C)c1cc(-c2cccc(C(Cc3cc[n+]([O-])cc3)c3ccc(Cl)cc3)c2)c2ncccc2c1 (stereo not given)
IC50 [1]: 52 nM
IC50 [2]: 19 nM
IC50 [3]: 68 nM
IC50 [4]: 45 nM
IC50 [5]: 11000 nM

CC(C)NC(=O)/C(=C/c1cccc(-c2cc(C(C)(C)S(C)(=O)=O)cc3cccnc23)c1)c1ccc(S(C)(=O)=O)cc1
IC50 [1]: 0.9 nM
IC50 [2]: 0.5 nM
IC50 [3]: 14 nM
IC50 [4]: 2.3 nM
IC50 [5]: 930 nM
Cmax [8]: > 2500 nM
inhibition in vivo at 0.1 mg/kg [9]: 59%

CC(C)c1cc(-c2cccc(CC(c3ccncc3)C(C)(C)O)c2)c2ncccc2c1 (stereo not given)
IC50 [1]: 3.4 nM
IC50 [2]: 1.8 nM
IC50 [3]: 106 nM
IC50 [4]: 4.4 nM
IC50 [5]: 12000 nM
inhibition in vivo at 1 mg/kg [10]: 47%
Emesis_Cmax [11]: 2.9 µM
Cmax [12]: 11900 nM
IC50 [13]: 450 nM

CC(C)c1cc(-c2cccc(/C=C(/c3ccc(C(C)(C)O)cc3)c3ccc(S(C)(=O)=O)cc3)c2)c2ncccc2c1
IC50 [1]: 0.4 nM
IC50 [2]: 0.3 nM
IC50 [3]: 0.5 nM
IC50 [4]: 0.5 nM
IC50 [5]: 610 nM

CC(c1cc(-c2cccc(/C=C(\c3ccc(S(C)(=O)=O)cc3)c3ncc(C(C)(C)O)s3)c2)c2ncccc2c1)S(C)(=O)=O (stereo not given)
IC50 [1]: 1.7 nM
IC50 [2]: 1.1 nM
IC50 [3]: 11 nM
IC50 [4]: 2 nM
IC50 [5]: 210 nM

CC(C)NC(=O)/C(=C\c1cccc(-c2cc(C(C)(C)C#N)cc3cccnc23)c1)c1ccc(S(C)(=O)=O)cc1
IC50 [1]: 1 nM
IC50 [2]: 0.4 nM
IC50 [3]: 11.4 nM
IC50 [4]: 0.5 nM
IC50 [5]: 210 nM

[O-][n+]1cccc(C[C@@H](c2ccc(OC(F)F)c(OC3CC3)c2)c2cnc(C(O)(C(F)(F)F)C(F)(F)F)s2)c1
IC50 [1]: 0.4 nM
IC50 [2]: 0.4 nM
IC50 [3]: 1 nM
IC50 [4]: 0.4 nM
IC50 [5]: 90 nM
inhibition in vivo at 0.01 mg/kg [14]: 62%
inhibition in vivo at 0.5 mg/kg/day [15]: 68%
inhibition in vivo at 0.5 mg/kg/day [16]: 92%
Cmax [17]: 1600 nM
IC50 [13]: 5 nM

O=S(=O)(Nc1cccc(-c2cc(Cc3ccncc3)cc3cccnc23)c1)c1ccccc1
IC50 [1]: 5.6 nM
IC50 [2]: 3 nM
IC50 [3]: 11.9 nM
IC50 [4]: 2 nM
IC50 [5]: 7800 nM
inhibition in vivo at 1 mg/kg [10]: 46%
Emesis_Cmax [11]: > 2 µM

CC(C)NC(=O)/C(=C/c1cccc(-c2cc(C(C)(C)C#N)cc3cccnc23)c1)c1ccc(S(C)(=O)=O)cc1
IC50 [1]: 0.8 nM
IC50 [2]: 0.3 nM
IC50 [3]: 6.8 nM
IC50 [4]: 0.7 nM
IC50 [5]: 70 nM
Cmax [12]: 1900 nM
IC50 [13]: 15 nM
Cmax [18]: 4100 nM
bioavailability [19]: 80%
Tmax [20]: 6 h
inhibition in vivo at 0.03 mg/kg [21]: 75%

CC(C)NC(=O)/C(=C/c1cccc(-c2cc(C(C)C)cc3cccnc23)c1)c1ccc(S(C)(=O)=O)cc1
IC50 [1]: 0.3 nM
IC50 [2]: 0.3 nM
IC50 [3]: 2.9 nM
IC50 [4]: 0.6 nM
IC50 [5]: 140 nM

Cc1noc(/C(=C/c2cccc(-c3cc(C(C)(C)S(C)(=O)=O)cc4cccnc34)c2)c2ccc(S(C)(=O)=O)cc2)n1
inhibition in vivo at 0.5 mg/kg/day [15]: 73%
inhibition in vivo at 0.5 mg/kg/day [16]: 95%
Cmax [12]: 3800 nM
Cmax [18]: 5100 nM
bioavailability [19]: 100%
Tmax [20]: 6 h

Cc1noc(/C(=C/c2cccc(-c3cc(C(C)C)cc4cccnc34)c2)c2ccc(S(C)(=O)=O)cc2)n1
IC50 [1]: 0.16 nM
IC50 [2]: 0.07 nM
IC50 [3]: 1.2 nM
IC50 [4]: 0.2 nM
IC50 [5]: 260 nM
Cmax [18]: 500 nM
bioavailability [19]: 11%
Tmax [20]: 0.5 h

CC(C)c1cc(-c2cccc(C(Cc3ccncc3)c3ccc(Cl)cc3)c2)c2ncccc2c1 (stereo not given)
IC50 [1]: 11.8 nM
IC50 [2]: 6.4 nM
IC50 [3]: 22 nM
IC50 [4]: 38 nM
IC50 [5]: 31000 nM

COc1ccc([C@H](Cc2ccncc2)c2ccccc2)cc1OC1CCCC1 [CDP840]
IC50 [1]: 2.1 nM
IC50 [2]: 1.4 nM
IC50 [3]: 4.5 nM
IC50 [5]: 14000 nM
inhibition in vivo at 1 mg/kg [10]: 54%
inhibition in vivo at 0.5 mg/kg/day [15]: 39%
inhibition in vivo at 0.5 mg/kg/day [16]: 88%
Cmax [22]: 2500 nM
Cmax [12]: 4000 nM
IC50 [13]: 600 nM
